Patent publication US12157746B2, “Tetrahydro-1H-pyrazino[2,1-a]isoindolylquinoline compounds for the treatment of autoimmune disease” (F. HOFFMANN-LA ROCHE AG, priority 2018, dated 2024)

Target: T1, human TLR8 (Homo sapiens, UniProt Q9NR97)
T1 sequence (Q9NR97 27-1041): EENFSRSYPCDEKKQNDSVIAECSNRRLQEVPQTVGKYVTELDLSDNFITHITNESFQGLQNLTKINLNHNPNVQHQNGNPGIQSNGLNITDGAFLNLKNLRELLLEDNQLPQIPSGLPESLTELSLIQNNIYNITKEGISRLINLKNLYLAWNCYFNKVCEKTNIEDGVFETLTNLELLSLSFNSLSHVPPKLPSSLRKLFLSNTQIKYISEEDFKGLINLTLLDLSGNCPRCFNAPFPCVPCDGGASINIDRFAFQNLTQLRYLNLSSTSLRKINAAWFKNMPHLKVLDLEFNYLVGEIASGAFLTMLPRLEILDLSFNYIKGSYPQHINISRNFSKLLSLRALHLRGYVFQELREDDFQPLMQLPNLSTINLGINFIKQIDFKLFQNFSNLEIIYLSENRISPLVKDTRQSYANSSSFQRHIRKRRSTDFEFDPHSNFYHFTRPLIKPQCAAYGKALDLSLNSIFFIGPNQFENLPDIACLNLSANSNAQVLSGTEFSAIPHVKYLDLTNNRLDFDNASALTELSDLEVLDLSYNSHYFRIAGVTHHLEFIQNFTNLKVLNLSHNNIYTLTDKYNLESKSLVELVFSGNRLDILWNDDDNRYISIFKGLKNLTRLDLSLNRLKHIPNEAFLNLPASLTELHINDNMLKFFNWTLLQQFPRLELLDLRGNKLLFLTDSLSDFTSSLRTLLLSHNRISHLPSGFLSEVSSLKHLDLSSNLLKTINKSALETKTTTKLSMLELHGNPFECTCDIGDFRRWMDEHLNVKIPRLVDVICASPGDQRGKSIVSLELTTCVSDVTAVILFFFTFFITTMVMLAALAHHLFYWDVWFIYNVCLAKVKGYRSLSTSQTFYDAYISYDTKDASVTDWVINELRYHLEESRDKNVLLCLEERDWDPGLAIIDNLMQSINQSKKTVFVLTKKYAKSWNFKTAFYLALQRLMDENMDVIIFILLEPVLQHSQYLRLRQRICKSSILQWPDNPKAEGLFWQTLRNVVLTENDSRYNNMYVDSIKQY
Test: HEK293-Blue-hTLR-8 cells assay
Format: cell-based
Settings: HEK293-Blue-hTLR8 cells, R848 stimulation, 20 hrs, SEAP reporter; read-out: HEK/hTLR8 IC50
Description: HEK293-Blue-hTLR-8 Cells Assay:
A stable HEK293-Blue-hTLR-8 cell line was purchased from InvivoGen (Cat. #: hkb-htlr8, San Diego, California, USA). These cells were originally designed for studying the stimulation of human TLR8 by monitoring the activation of NF-κB. A SEAP (secreted embryonic alkaline phosphatase) reporter gene was placed under the control of the IFN-β minimal promoter fused to five NF-κB and AP-1-binding sites. The SEAP was induced by activating NF-κB and AP-1 via stimulating HEK-Blue hTLR8 cells with TLR8 ligands. Therefore the reporter expression was declined by TLR8 antagonist under the stimulation of a ligand, such as R848, for incubation of 20 hrs. The cell culture supernatant SEAP reporter activity was determined using QUANTI-Blue™kit (Cat. #: rep-qb1, Invivogen, San Diego, Ca, USA) at a wavelength of 640 nm, a detection medium that turns purple or blue in the presence of alkaline phosphatase.
HEK293-Blue-hTLR8 cells were incubated at a density of 250,000-450,000 cells/mL in a volume of 170 μL in a 96-well plate in Dulbecco's Modified Eagle's medium (DMEM) containing 4.5 g/L glucose, 50 U/mL penicillin, […], […], 2 mM L-glutamine, 10% (v/v) heat-inactivated fetal bovine serum with addition of 20 μL test compound 1n a serial dilution in the presence of final DMSO at 1% and 10 μL of 60 uM R848 in above DMEM, perform incubation under 37° C. in a CO2 incubator for 20 hrs. Then 20 μL of the supernatant from each well was incubated with 180 μL Quanti-blue substrate solution at 37° C. for 2 hrs and the absorbance was read at 620-655 nm using a spectrophotometer. The signaling pathway that TLR8 activation leads to downstream NF-κB activation has been widely accepted, and therefore similar reporter assay was modified for evaluating TLR8 antagonist.

Row | SMILES | IC50 [nM]
1 | C[C@@H]1CN(c2ccc(C#N)c3ncccc23)C[C@@H]2c3ccc(N4CCNC[C@H]4CO)cc3CN12 [Example 11, 5-[(4R,10S)-8-[(2S)-2-(hydroxymethyl)piperazin-1-yl]-4-methyl-3,4,6,10b-tetrahydro-1H-pyrazino[2,1-a]isoindol-2-yl]quinoline-8-carbonitrile] | < 3.2
2 | C[C@@H]1CN(c2ccc(C#N)c3ncccc23)C[C@@H]2c3ccc(N4C[C@@H](N)[C@@H](F)C4)cc3CN12 [Example 47, 5-[(4R,10bS)-8-[(3R,4S)-3-amino-4-fluoro-pyrrolidin-1-yl]-4-methyl-3,4,6,10b-tetrahydro-1H-pyrazino[2,1-a]isoindol-2-yl]quinoline-8-carbonitrile] | 0.6
3 | CN[C@@H]1CN(c2ccc3c(c2)CN2[C@H](C)CN(c4ccc(C#N)c5ncccc45)C[C@H]32)C[C@H]1O [Example 43, 5-[(4R,10bS)-4-methyl-8-[(3R,4R)-3-hydroxy-4-(methylamino)pyrrolidin-1-yl]-3,4,6,10b-tetrahydro-1H-pyrazino[2,1-a]isoindol-2-yl]quinoline-8-carbonitrile] | < 3.2
4 | CO[C@@H]1CNC[C@H]1Nc1ccc2c(c1)CN1[C@H](C)CN(c3ccc(C#N)c4ncccc34)C[C@H]21 [Example 34, 5-[(4R,10bS)-8-[[(3R,4R)-4-methoxypyrrolidin-3-yl]amino]-4-methyl-3,4,6,10b-tetrahydro-1H-pyrazino[2,1-a]isoindol-2-yl]quinoline-8-carbonitrile] | < 3.2
5 | C[C@@H]1CN(c2ccc(C#N)c3ncccc23)C[C@@H]2c3ccc(N[C@@H]4CNC[C@@H]4F)cc3CN12 [Example 32, 5-[(4R,10bS)-8-[[(3R,4S)-4-fluoropyrrolidin-3-yl]amino]-4-methyl-3,4,6,10b-tetrahydro-1H-pyrazino[2,1-a]isoindol-2-yl]quinoline-8-carbonitrile] | < 3.2
6 | C[C@@H]1CN(c2ccc(C#N)c3ncccc23)C[C@@H]2c3ccc(N4C[C@H]5NCCO[C@@H]5C4)cc3CN12 [Example 44, 5-[(4R,10bS)-4-methyl-8-[(4aR,7aR)-3,4,4a,5,7,7a-hexahydro-2H-pyrrolo[3,4-b][1,4]oxazin-6-yl]-3,4,6,10b-tetrahydro-1H-pyrazino[2,1-a]isoindol-2-yl]quinoline-8-carbonitrile] | 0.4
7 | C[C@@H]1CN(c2ccc(C#N)c3ncccc23)C[C@@H]2c3ccc(N4CCC(N)(CO)C4)cc3CN12 (stereo partly drawn) [Example 19, 5-[(4R,10bS)-8-[3-amino-3-(hydroxymethyl)pyrrolidin-1-yl]-4-methyl-3,4,6,10b-tetrahydro-1H-pyrazino[2,1-a]isoindol-2-yl]quinoline-8-carbonitrile] | < 3.2
8 | C[C@@H]1CN(c2ccc(C#N)c3ncccc23)C[C@@H]2c3ccc(N4CC5CNCC(C4)O5)cc3CN12 [Example 14, 5-[(4R,10bS)-4-methyl-8-(9-oxa-3,7-diazabicyclo[3.3.1]nonan-3-yl)-3,4,6,10b-tetrahydro-1H-pyrazino[2,1-a]isoindol-2-yl]quinoline-8-carbonitrile] | < 3.2
9 | COC12CNCC1CN(c1ccc3c(c1)CN1[C@H](C)CN(c4ccc(C#N)c5ncccc45)C[C@H]31)C2 (stereo partly drawn) [Example 41, 5-[(4R,10bS)-8-(3a-methoxy-1,2,3,4,6,6a-hexahydropyrrolo[3,4-c]pyrrol-5-yl)-4-methyl-3,4,6,10b-tetrahydro-1H-pyrazino[2,1-a]isoindol-2-yl]quinoline-8-carbonitrile] | < 3.2
10 | C[C@@H]1CN(c2ccc(C#N)c3ncccc23)C[C@@H]2c3ccc(N4C[C@H](N)[C@@H](O)C4)cc3CN12 [Example 40A, 5-[(4R,10bS)-8-[(3S,4S)-3-amino-4-hydroxy-pyrrolidin-1-yl]-4-methyl-3,4,6,10b-tetrahydro-1H-pyrazino[2,1-a]isoindol-2-yl]quinoline-8-carbonitrile] | 1.4
11 | C[C@@H]1CN(c2ccc(C#N)c3ncccc23)C[C@@H]2c3ccc(N4CC5(CNC5)C4)cc3CN12 [Example 36, 5-[(4R,10bS)-8-(2,6-diazaspiro[3.3]heptan-2-yl)-4-methyl-3,4,6,10b-tetrahydro-1H-pyrazino[2,1-a]isoindol-2-yl]quinoline-8-carbonitrile] | < 3.2
12 | C[C@@H]1CN(c2ccc(C#N)c3ncccc23)C[C@@H]2c3ccc(NCCN(C)C)cc3CN12 [Example 26, 5-[(4R,10bS)-8-[2-(dimethylamino)ethylamino]-4-methyl-3,4,6,10b-tetrahydro-1H-pyrazino[2,1-a]isoindol-2-yl]quinoline-8-carbonitrile] | < 3.2
13 | C[C@@H]1CN(c2ccc(C#N)c3ncccc23)C[C@@H]2c3ccc(N4C[C@@H](N)[C@](C)(O)C4)cc3CN12 [Example 45, 5-[(4R,10bS)-4-methyl-8-[trans-(3R,4R)-4-amino-3-hydroxy-3-methyl-pyrrolidin-1-yl]-3,4,6,10b-tetrahydro-1H-pyrazino[2,1-a]isoindol-2-yl]quinoline-8-carbonitrile] | < 3.2

The next lines start with the values.

Row | IC50 [nM] | SMILES
14 | 4.6 | CO[C@H]1CN(c2ccc3c(c2)CN2[C@H](C)CN(c4ccc(C#N)n5nccc45)C[C@H]32)C[C@@H]1N [Example 95, 4-[(4R,10bS)-8-[(3S,4S)-3-amino-4-methoxy-pyrrolidin-1-yl]-4-methyl-3,4,6,10b-tetrahydro-1H-pyrazino[2,1-a]isoindol-2-yl]pyrazolo[1,5-a]pyridine-7-carbonitrile]
15 | 3.2 | CO[C@@H]1CN(c2ccc3c(c2)CN2[C@H](C)CN(c4ccc(C#N)n5nccc45)C[C@H]32)CC[C@H]1N [Example 104, 4-[(4R,10bS)-8-[(3R,4R)-4-amino-3-methoxy-1-piperidyl]-4-methyl-3,4,6,10b-tetrahydro-1H-pyrazino[2,1-a]isoindol-2-yl]pyrazolo[1,5-a]pyridine-7-carbonitrile]
16 | 5 | C[C@@H]1CN(c2ccc(C#N)n3nccc23)C[C@@H]2c3ccc(N4C[C@@H](N)[C@H](O)C4)cc3CN12 [Example 110, 4-[(4R,10bS)-8-[(3R,4R)-3-amino-4-hydroxy-pyrrolidin-1-yl]-4-methyl-3,4,6,10b-tetrahydro-1H-pyrazino[2,1-a]isoindol-2-yl]pyrazolo[1,5-a]pyridine-7-carbonitrile]
17 | 4 | C[C@@H]1CN(c2ccc(C#N)n3nccc23)C[C@@H]2c3ccc(N4CC[C@@H](N)C4)cc3CN12 [Example 96, 4-[(4R,10bS)-8-[(3R)-3-aminopyrrolidin-1-yl]-4-methyl-3,4,6,10b-tetrahydro-1H-pyrazino[2,1-a]isoindol-2-yl]pyrazolo[1,5-a]pyridine-7-carbonitrile]
18 | 0.7 | C[C@@H]1CN(c2ccc(C#N)c3ncccc23)C[C@@H]2c3ccc(N4C[C@@H](N)[C@H](F)C4)cc3CN12 [Example 48, 5-[(4R,10bS)-8-[(3R,4R)-3-amino-4-fluoro-pyrrolidin-1-yl]-4-methyl-3,4,6,10b-tetrahydro-1H-pyrazino[2,1-a]isoindol-2-yl]quinoline-8-carbonitrile]
19 | < 3.2 | C[C@@H]1CN(c2ccc(C#N)c3ncccc23)C[C@@H]2c3ccc(N4CC(N)C4)cc3CN12 [Example 22, 5-[(4R,10bS)-8-(3-aminoazetidin-1-yl)-4-methyl-3,4,6,10b-tetrahydro-1H-pyrazino[2,1-a]isoindol-2-yl]quinoline-8-carbonitrile]
